Results reported in publication PMC8424217 (The Journal of Biological Chemistry, 2021).
Peptide text beside a SMILES is read from it. * marks the point of attachment. Palmitoyl = CCCCCCCCCCCCCCCC(=O)*

Tests used:
hUT [1] = molecular target: T1, hUT (Homo sapiens, UniProt Q9UKP6); assay: Gq activation, BRET biosensor, HEK 293-hUT cells; type: cell-based; design: expressed in transfected cells; settings: mean ± SEM; for EC50: n = 3–5, read-out: Gq activation pEC50 (converted)
T1 sequence (Q9UKP6 1-389): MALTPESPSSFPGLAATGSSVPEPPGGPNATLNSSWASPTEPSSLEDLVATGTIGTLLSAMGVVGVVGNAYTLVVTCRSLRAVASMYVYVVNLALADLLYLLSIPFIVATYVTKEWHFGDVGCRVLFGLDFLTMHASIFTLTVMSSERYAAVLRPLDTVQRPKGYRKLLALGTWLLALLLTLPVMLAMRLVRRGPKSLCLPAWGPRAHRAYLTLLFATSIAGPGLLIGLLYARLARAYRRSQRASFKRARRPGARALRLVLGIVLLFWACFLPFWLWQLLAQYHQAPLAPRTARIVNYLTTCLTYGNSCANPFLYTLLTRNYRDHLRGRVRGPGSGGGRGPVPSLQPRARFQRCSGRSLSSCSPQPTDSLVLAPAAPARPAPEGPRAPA
Experimental: (§1) Figure 6 Signaling signature of hUT-pepducins following hUT receptor activation. […] Each curve represents mean ± SEM of at least three independent concentration-response experiments performed in triplicate.
(§2) HEK 293-hUT cells were grown in DMEM culture media supplemented with 10% foetal bovine serum, HEPES, sodium pyruvate, and G418 (200 μg mL^−1). Passages were performed when cells reached 80% of confluency. Cells were initially plated in 96-well plates at a density of 10,000 cells/well. The following day, the medium is replaced with DMEM culture media supplemented with 2.5% foetal bovine serum (FBS), and 12 h later, cells were transiently transfected with 25 ng/well of a Gq-polycistronic, 25 ng/well of a G12-polycistronic BRET sensor, 25 ng/well of a G13-polycistronic BRET sensor, 2.5 ng/well pIRESB RLucII-ERK-NLS-GFP BRET sensor, 2.5 ng β-arrestin 1-polycistronic BRET sensor, or 2.5 ng β-arrestin 2-polycistronic BRET sensor using Lipofectamine2000 at a ratio of 3:1 (Lipofectamine/plasmid DNA) in serum-free Opti-MEM ([44], [81]). Sixteen hours posttransfection, medium was replaced with DMEM supplemented with 10% FBS, HEPES, sodium pyruvate and G418 (200 μg mL^−1) and cell growth was resumed for another 16 h. Cells were washed with 150 μl PBS solution supplemented with 0.1% of glucose and then incubated with 80 μl of this solution for 2 h. Then, to evaluate Gq and G12 activation, 10 μl of a 1/20 dilution (diluted before use) of coelenterazine 400A (stock at 1 mM in ethanol) in Kreb's buffer and 10 μl of the 10× appropriate concentration of peptide were added, and the luminescence was evaluated with an Infinite M1000 PRO. […] Readings were performed after 5 min using an Infinite M1000 PRO. Filters were set at 410 nm and 515 nm for detecting the Renilla luciferase II (RlucII, donor) and green fluorescent protein 10 (GFP10, acceptor) light emission, respectively. BRET ratio was determined by calculating the ratio of the light emitted by GFP10 over the light emitted by the RlucII.

hUT [2] = molecular target: T1, hUT; assay: β-arrestin 2 conformational change, BRET biosensor, HEK 293-hUT cells; type: cell-based; design: expressed in transfected cells; settings: 15 min at RT
Experimental: as §1, §2

[3] = Solution NMR conformational analysis in DPC micelles; type: physicochemical; settings: pH 5.5, 25 °C, restrained MD calculations
Experimental: Samples for NMR spectroscopy were prepared by dissolving the appropriate amount of peptide in 0.54 ml of ^1H2O (pH 5.5), 0.06 ml of ^2H2O to obtain a final DPC-d38 concentration of 2 mM and 200 mM. NMR spectra were recorded on a Varian INOVA 700 MHz spectrometer equipped with a z-gradient 5 mm triple-resonance probe head. All spectra were recorded at a temperature of 25 °C and were calibrated relative to TSP (0.00 ppm) as internal standard. One-dimensional (1D) NMR spectra were recorded in the Fourier mode with quadrature detection. The water signal was suppressed by gradient echo ([70]). Two dimensional (2D) DQF-COSY ([71], [72]), TOCSY ([73]), and NOESY ([74]) spectra were recorded in the phase-sensitive mode as described ([75]). Data block sizes were 2048 addresses in t2 and 512 equidistant t1 values. […] The qualitative and quantitative analyses of DQF-COSY, TOCSY, and NOESY spectra were obtained using the interactive program package XEASY ([76]). Complete ^1H NMR chemical shift assignments were effectively achieved for hUT-Pep2 and [Trp^1, Leu^2]hUT-Pep3 according to the Wüthrich procedure ([77]) via the usual systematic application of DQF-COSY, TOCSY, and NOESY experiments with the support of the XEASY software package (Tables S1 and S3). ^3JαN coupling constants were measured by 1D proton and DQF-COSY spectra. […]

hUT [4] = molecular target: T1, hUT; assay: G12 activation, BRET biosensor, HEK 293-hUT cells; type: cell-based; design: expressed in transfected cells
Experimental: as §1
(§3) HEK 293-hUT cells were grown in DMEM culture media supplemented with 10% foetal bovine serum, HEPES, sodium pyruvate, and G418 (200 μg mL^−1). Passages were performed when cells reached 80% of confluency. Cells were initially plated in 96-well plates at a density of 10,000 cells/well. […] Then, to evaluate Gq and G12 activation, 10 μl of a 1/20 dilution (diluted before use) of coelenterazine 400A (stock at 1 mM in ethanol) in Kreb's buffer and 10 μl of the 10× appropriate concentration of peptide were added, and the luminescence was evaluated with an Infinite M1000 PRO. […] Readings were performed after 5 min using an Infinite M1000 PRO. […] BRET ratio was determined by calculating the ratio of the light emitted by GFP10 over the light emitted by the RlucII.

hUT [5] = molecular target: T1, hUT; assay: Antagonism of hUII- or URP-mediated G12 activation, BRET, HEK 293-hUT cells; type: cell-based; design: expressed in transfected cells; settings: pepducin 10^−5 M for 15 min, then hUII or URP, at least three experiments in triplicate
Experimental: Figure 10 Effect of hUT-pepducins on hUT-mediated G12activation. […] Each curve represents mean ± SEM of at least three independent concentration–response experiments performed in triplicate.
as §3

[6] = percentage of the activation induced by hUII (10^−6 M), n = 3–5

| Emax at 1 µM (hUT [1]; [6]) | Emax at 1 µM (hUT [4]; read-out: G12 activation Emax) | SMILES | EC50 (hUT [1]) | Emax (hUT [1]; [6]) | EC50 (hUT [2]; mean ± SEM, n = 3–5, read-out: β-arrestin 2 pEC50 (converted)) | Emax (hUT [2]; percentage of the activation induced by hUII (10^−6 M), mean ± SEM, n = 3–5) | conformation by NMR [3] | Emax at 1 µM (hUT [4]; read-out: G12 activation, maximum efficacy at 10^−6 M) | hUII- and URP-mediated G12 activation after pepducin pretreatment (hUT [5]) | Emax at 1 µM (hUT [2]; at 10^−6 M, percentage of the activation induced by hUII (10^−6 M), read-out: β-arrestin 2, maximum efficacy at 10^−6 M) |
| --- | --- | --- | --- | --- | --- | --- | --- | --- | --- | --- |
| – | – | CCCCCCCCCCCCCCCC(=O)N[C@@H](Cc1c[nH]c2ccccc12)C(=O)N[C@@H](CC(C)C)C(=O)N[C@@H](CO)C(=O)N[C@@H](CCC(N)=O)C(=O)N[C@@H](CCCNC(=N)N)C(=O)N[C@@H](C)C(=O)N[C@@H](CO)C(=O)N[C@@H](Cc1ccccc1)C(=O)N[C@@H](CCCCN)C(=O)N[C@@H](CCCNC(=N)N)C(=O)N[C@@H](C)C(=O)N[C@@H](CCCNC(=N)N)C(=O)N[C@@H](CCCNC(=N)N)C(N)=O [[Trp^1, Leu^2]hUT-Pep3] (Palmitoyl-WLSQRASFKRARR-NH2) | 4.57 nM | 29 ± 4% | 18.2 nM | 19 ± 3% | high tendency of [Trp^1, Leu^2]hUT-Pep3 to fold into a helix | 5% | completely abolished hUII- and URP-associated G12 stimulation | – |
| 109 ± 5% | 98 ± 3% | CC(C)[C@H](NC(=O)[C@@H]1CSSC[C@H](NC(=O)[C@H](CC(=O)O)NC(=O)[C@@H]2CCCN2C(=O)[C@@H](NC(=O)[C@@H](N)CCC(=O)O)[C@@H](C)O)C(=O)N[C@@H](Cc2ccccc2)C(=O)N[C@@H](Cc2c[nH]c3ccccc23)C(=O)N[C@@H](CCCCN)C(=O)N[C@@H](Cc2ccc(O)cc2)C(=O)N1)C(=O)O [hUII, urotensin II, reference compound] | – | – | – | – | – | – | – | – |
| – | – | CCCCCCCCCCCCCCCC(=O)N[C@@H](CCCNC(=N)N)C(=O)N1CCC[C@H]1C(=O)N[C@@H](CC(C)C)C(=O)N[C@@H](CC(=O)O)C(=O)N[C@H](C(=O)N[C@H](C(=O)N[C@@H](CCC(N)=O)C(=O)N[C@@H](CCCNC(=N)N)C(=O)N1CCC[C@H]1C(=O)N[C@@H](CCCCN)C(=O)NCC(=O)N[C@@H](Cc1ccc(O)cc1)C(N)=O)C(C)C)[C@@H](C)O [hUT-Pep2] (Palmitoyl-RPLDTVQRPKGY-NH2) | 49 nM | ~9% | – | – | two type I β-turns along residues 1–4 and 3–6 and three distorted (type IV) β-turns along residues 4–7, 5–8, and 6–9 | – | completely abolished hUII- and URP-associated G12 stimulation | ~15% |
